Test results published in patent US10191057B2, “Methods of diagnosing, classifying and treating endometrial cancer and precancer” (THE TRANSLATIONAL GENOMICS RESEARCH INSTITUTE, priority 2007, dated 2019).

What was measured:
AKT = assay: Western blot, activation of AKT; format: cell-based, human; conditions: for AKT activation: HEC1A
Method: (§1) Cells were plated at a density of 4×10^5 cells per well in a 6 well plate. The next day, cells were infected with lentiviral stocks in the presence of 6 μg/ml polybrene (Sigma-Aldrich, St. Louis, Mo.). Empty vector and nonsilencing shRNA infections were used as controls for each experiment. […] Growth Inhibition Assay Twenty-four hours after infection, cells were trypsinized and plated in 96 well plates in full growth medium at a density of 5,000 cells per well, in triplicate, and proliferation assessed using the Sulforhodamine B (SRB) assay (Sigma-Aldrich, St. Louis, Mo.). At the indicated time points, wells were fixed with 10% (wt/vol) trichloroacetic acid, stained with SRB for 30 min, and washed with 1% (vol/vol) acetic acid. The protein-bound dye was dissolved in 10 mM Tris base solution, and absorbance measured at 510 nm. […] Annexin V-FITC Labeling of Apoptotic Cells Annexin V-FITC staining was used to measure phosphatidylserine exposure on cells undergoing apoptosis, according to the manufacturer's instructions (BioVision, Inc. Mountain View, Calif.). […] 2.5×10^5 cells were plated per well in a 6 well plate. Twenty-four hours later, cells were transfected with 25 nM nonsilencing (NS) siRNA or FGFR2 siRNA X2 using Lipofectamine 2000 transfection reagent. The siRNA duplex was allowed to form a complex with Lipofectamine 2000 for 20 minutes at room temperature, and transfection carried out at 37° C. for 24 hours. 48 hours after transfection, floating and attached cells were collected, washed in cold PBS, resuspended in Annexin binding buffer (10 mM Hepes (pH 7.4), 140 mM NaCl, 2.5 mM CaCl2), stained with 500 ng/mL annexinV-FITC and 1 μg/mL propidium iodide (Sigma-Aldrich, St. Louis, Mo.), and analyzed for annexin positive cells using a CyAn ADP flow cytometer and Summit software, version 4.3 (Dako Cytomation, Carpinteria, Calif.). […] Cell Cycle Analysis Cells were plated at a density of 1×10^5 cells per well in a 6 well plate. […] 72 hours later, cells were stained with propidium iodide as described {Krishan, 1975 #28} and analyzed by flow cytometry. Cell cycle analysis was performed using ModFit software (Verity Software House, Inc. Topsham, Me.). Western Blot Analysis Cells were plated in 60 mm^2 dishes at a density of 2×10^6 cells per dish. […] Cells were washed in ice cold PBS, lysed in kinase buffer [20 mM Hepes pH7.4, 2 mM EGTA, 1% Triton X100, 10% glycerol, 1 mM Na3VO4, 1 mM NaF, 100 uM AEBSF, and 1 tablet/10 mL of Mini Complete Protease Inhibitor (Roche Molecular Biochemicals, Indianapolis, Ind.)], briefly sonicated on ice, and protein concentrations estimated using Quick Start Bradford Reagent with bovine gamma-globulin standards (Bio-Rad Laboratories, Hercules, Calif.). Equal amounts of protein were separated by SDS-PAGE on 4-12% gradient gels and transferred to polyvinylidene difluoride membranes (Invitrogen, Carlsbad, Calif.). Membranes were immunoblotted with antibodies to phosphorylated and total AKT, ERK1/2, p38, STAT-3 and STAT-5, PLCγ and total PTEN (Cell Signaling Technology, Beverly, Mass.). FGFR2 expression was detected with BekC17 antibody (Santa Cruz Biotechnology, Inc., Santa Cruz, Calif.). Horseradish peroxidase-conjugated goat anti-mouse or anti-rabbit secondary antibodies (Biomeda, Foster City, Calif.), were used, followed by chemiluminescence staining. For shRNA studies, lysates were collected 48 hours after shRNA transduction and processed as described above. Statistical Analysis

PLCγ = assay: Western blot, activation of PLCγ; format: cell-based, human; conditions: following PD173074 treatment, data not shown
Method: (§2) Cells were plated at a density of 4×10^5 cells per well in a 6 well plate. The next day, cells were infected with lentiviral stocks in the presence of 6 μg/ml polybrene (Sigma-Aldrich, St. Louis, Mo.). Empty vector and nonsilencing shRNA infections were used as controls for each experiment. […] Growth Inhibition Assay Twenty-four hours after infection, cells were trypsinized and plated in 96 well plates in full growth medium at a density of 5,000 cells per well, in triplicate, and proliferation assessed using the Sulforhodamine B (SRB) assay (Sigma-Aldrich, St. Louis, Mo.). […] The protein-bound dye was dissolved in 10 mM Tris base solution, and absorbance measured at 510 nm. […] 48 hours after transfection, floating and attached cells were collected, washed in cold PBS, resuspended in Annexin binding buffer (10 mM Hepes (pH 7.4), 140 mM NaCl, 2.5 mM CaCl2), stained with 500 ng/mL annexinV-FITC and 1 μg/mL propidium iodide (Sigma-Aldrich, St. Louis, Mo.), and analyzed for annexin positive cells using a CyAn ADP flow cytometer and Summit software, version 4.3 (Dako Cytomation, Carpinteria, Calif.). […] 72 hours later, cells were stained with propidium iodide as described {Krishan, 1975 #28} and analyzed by flow cytometry. […] FGFR2 expression was detected with BekC17 antibody (Santa Cruz Biotechnology, Inc., Santa Cruz, Calif.). […]

AN3CA cells [1] = assay: Annexin V-FITC labeling of apoptotic cells, AN3CA; format: cell-based, human
Method: as §2

ERK1/2 = assay: Western blot, activation of ERK1/2; format: cell-based, human
Method: as §1

MFE296 cells [2] = assay: Annexin V-FITC labeling of apoptotic cells, MFE296; format: cell-based, human; conditions: MFE296, data not shown
Method: as §2

[3] = test system: MFE296 cells (N550K FGFR2 mutation); assay: SRB cell proliferation/viability assay, MFE296; format: cell-based; conditions: Homo sapiens, MFE-296, read-out: PD173074 IC50, cell viability; MFE296, SRB assay 72 hours after addition, full growth medium
Method: as §2

[4] = test system: KLE cells (wildtype FGFR2); assay: SRB cell viability assay, KLE; format: cell-based; conditions: Homo sapiens, read-out: PD173074 IC50, cell viability, SRB assay 72 hours after addition, full growth medium
[5] = test system: myeloma cells with an activating t(4; 14) translocation and activating mutations in FGFR3; conditions: t(4; 14) translocation and activating FGFR3 mutations; cited from earlier work
[6] = test system: Ishikawa cells (wildtype FGFR2); assay: SRB cell viability assay, Ishikawa; format: cell-based; conditions: Homo sapiens, read-out: PD173074 IC50, cell viability, SRB assay 72 hours after addition, full growth medium
Method: as §2

[7] = test system: RL952 cells (wildtype FGFR2); assay: SRB cell viability assay, RL952; format: cell-based; conditions: Homo sapiens, RL95-2, read-out: PD173074 IC50, cell viability; RL952, SRB assay 72 hours after addition, full growth medium
Method: as §2

[8] = test system: HEC1A cells (wildtype FGFR2); assay: SRB cell viability assay, HEC1A; format: cell-based; conditions: Homo sapiens, HEC-1-A, read-out: PD173074 IC50, cell viability, SRB assay 72 hours after addition, full growth medium
Method: as §2

AN3CA cells [9] = assay: Cell cycle analysis (propidium iodide, flow cytometry), AN3CA; format: cell-based, human; conditions: 1 μM, 72 hrs
Method: as §2

[10] = test system: AN3CA (FGFR2 N550K mutant) xenograft tumors; assay: AN3CA xenograft tumor growth; conditions: 25 mg/kg twice daily by oral gavage
Method: (§3) Briefly, mice were inoculated subcutaneously with 0.1 ml of a 50% RPMI/50% Matrigel™ mixture containing a suspension of tumor cells (1×10^7 cells/mouse). […] Tumor weight measurements were recorded three times a week.

VEGFR2 = VEGFR2 (Homo sapiens, UniProt P35968); conditions: cited from earlier work
VEGFR2, sequence (P35968 20-1356, species assumed): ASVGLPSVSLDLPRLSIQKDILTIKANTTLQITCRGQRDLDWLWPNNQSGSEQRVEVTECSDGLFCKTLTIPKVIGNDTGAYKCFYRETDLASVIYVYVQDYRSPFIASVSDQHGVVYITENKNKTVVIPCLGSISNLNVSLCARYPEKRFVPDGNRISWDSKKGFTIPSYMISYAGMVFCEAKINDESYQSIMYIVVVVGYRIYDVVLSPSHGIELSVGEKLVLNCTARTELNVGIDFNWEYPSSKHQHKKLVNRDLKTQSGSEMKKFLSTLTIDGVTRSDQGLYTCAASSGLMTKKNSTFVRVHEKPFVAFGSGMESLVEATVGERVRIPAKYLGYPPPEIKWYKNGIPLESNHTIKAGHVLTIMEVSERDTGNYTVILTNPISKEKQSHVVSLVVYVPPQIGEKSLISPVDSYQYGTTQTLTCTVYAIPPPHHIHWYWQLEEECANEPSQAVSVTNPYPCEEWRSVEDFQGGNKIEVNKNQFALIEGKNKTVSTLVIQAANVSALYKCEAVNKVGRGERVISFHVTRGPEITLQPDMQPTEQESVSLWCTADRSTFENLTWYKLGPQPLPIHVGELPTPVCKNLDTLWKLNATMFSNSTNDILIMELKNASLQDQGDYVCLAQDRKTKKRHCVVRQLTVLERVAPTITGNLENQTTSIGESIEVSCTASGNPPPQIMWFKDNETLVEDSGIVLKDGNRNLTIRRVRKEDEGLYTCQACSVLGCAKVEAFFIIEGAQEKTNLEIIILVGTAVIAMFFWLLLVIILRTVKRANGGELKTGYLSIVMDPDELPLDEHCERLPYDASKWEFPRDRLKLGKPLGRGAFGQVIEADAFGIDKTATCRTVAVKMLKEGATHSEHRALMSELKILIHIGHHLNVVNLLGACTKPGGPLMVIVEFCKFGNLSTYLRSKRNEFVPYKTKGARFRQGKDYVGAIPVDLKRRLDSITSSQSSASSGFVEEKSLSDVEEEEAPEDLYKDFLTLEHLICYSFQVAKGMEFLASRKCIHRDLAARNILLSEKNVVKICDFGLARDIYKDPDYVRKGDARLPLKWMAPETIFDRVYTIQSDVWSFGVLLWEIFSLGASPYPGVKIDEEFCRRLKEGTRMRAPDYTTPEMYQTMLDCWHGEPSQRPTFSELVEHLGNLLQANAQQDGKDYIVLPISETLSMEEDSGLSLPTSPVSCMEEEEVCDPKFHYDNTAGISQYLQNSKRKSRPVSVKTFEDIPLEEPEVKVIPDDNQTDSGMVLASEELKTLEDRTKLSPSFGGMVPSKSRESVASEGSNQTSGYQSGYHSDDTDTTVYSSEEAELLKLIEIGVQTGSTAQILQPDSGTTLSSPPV

STAT3 = assay: Western blot, activation of STAT3; format: cell-based, human; conditions: 10% FBS
Method: as §1

MFE296 cells [11] = assay: Cell cycle analysis, MFE296; format: cell-based, human; conditions: MFE296, data not shown
Method: as §2

[12] = test system: AN3CA cells (N550K FGFR2 mutation); assay: SRB cell proliferation/viability assay, AN3CA; format: cell-based; conditions: Homo sapiens, AN3-CA, read-out: PD173074 IC50, cell viability, SRB assay 72 hours after addition, full growth medium
p38 = assay: Western blot, activation of p38; format: cell-based, human; conditions: 10% FBS
Method: as §1

[13] = test system: Hec1A (FGFR2 wild type) xenograft tumors; assay: Hec1A xenograft tumor growth; conditions: 25 mg/kg twice daily by oral gavage
Method: as §3

[14] = AN3CA, 1 μM, 0 to 72 hours, 0.2% FBS
[15] = AN3CA, 1 μM, 0 to 72 hours, 10% FBS
[16] = AN3CA, increasing concentrations, 3 hours, 10% FBS
[17] = MFE296, 1 μM, 0 to 72 hours, 0.2% FBS
[18] = MFE296, 1 μM, 0 to 72 hours, 10% FBS
[19] = MFE296, increasing concentrations, 3 hours, 10% FBS
[20] = AN3CA, increasing concentrations, 3 hours
[21] = HEC1A, increasing concentrations, 3 hours
[22] = MFE296, increasing concentrations, 3 hours

SMILES: CCN(CC)CCCCNc1ncc2cc(-c3cc(OC)cc(OC)c3)c(NC(=O)NC(C)(C)C)nc2n1 [PD173074]
- AKT phosphorylation (AKT; [14]): modest suppression of AKT phosphorylation
- AKT phosphorylation (AKT; [15]): partial suppression of AKT phosphorylation
- AKT phosphorylation (AKT; [16]): modest suppression of AKT phosphorylation
- AKT activation (AKT; 1 μM, 0 to 72 hours, 0.2% FBS): no effect
- AKT activation (AKT; 1 μM, 0 to 72 hours, 10% FBS): no effect
- AKT activation (AKT; increasing concentrations, 3 hours, 10% FBS): no effect
- AKT phosphorylation (AKT; [17]): modest suppression of AKT phosphorylation
- AKT phosphorylation (AKT; [18]): partial suppression of AKT phosphorylation
- AKT phosphorylation (AKT; [19]): modest suppression of AKT phosphorylation
- PLCγ activation (PLCγ): no change
- Annexin-V staining compared to DMSO (AN3CA cells [1]; 1 μM, 48, 72 or 96 hours): increase in Annexin-V staining
- cells undergoing apoptosis (Annexin V-FITC labeling) (AN3CA cells [1]; 1 μM, 96 hours after drug treatment): ~70%
- ERK1/2 activation (ERK1/2; [14]): suppression of ERK1/2 activation
- ERK1/2 activation (ERK1/2; [15]): suppression of ERK1/2 activation
- ERK1/2 activation (ERK1/2; [16]): suppression of ERK1/2 activation
- ERK1/2 activation (ERK1/2; HEC1A, 1 μM, 0 to 72 hours, 0.2% FBS): no effect
- ERK1/2 activation (ERK1/2; HEC1A, 1 μM, 0 to 72 hours, 10% FBS): no effect
- ERK1/2 activation (ERK1/2; HEC1A, increasing concentrations, 3 hours, 10% FBS): no effect
- ERK1/2 activation (ERK1/2; [17]): suppression of ERK1/2 activation
- ERK1/2 activation (ERK1/2; [18]): suppression of ERK1/2 activation
- ERK1/2 activation (ERK1/2; [19]): suppression of ERK1/2 activation
- Annexin V staining (MFE296 cells [2]): did not result in enhanced Annexin V staining
- IC50 [3]: 284 nM
- IC50 [4]: > 1000 nM
- apoptosis in myeloma cells [5]: induce apoptosis
- IC50 [6]: 2920 nM
- IC50 [7]: > 1000 nM
- IC50 [8]: > 3000 nM
- cell cycle effect (AN3CA cells [9]): G1 cell cycle arrest
- growth of xenograft tumors [10]: suppressed growth of all eight
- tumors with tumor regression [10]: six of the eight
- mean tumor shrinkage ([10]; regressing tumors): 51%
- IC50 (VEGFR2): ~100 nM
- STAT3 activation (STAT3; AN3CA, 1 μM, 0 to 72 hours): no effect
- STAT3 activation (STAT3; [20]): no effect
- STAT3/5 activation (STAT3; HEC1A, 1 μM, 0 to 72 hours): no effect
- STAT3 activation (STAT3; [21]): no effect
- STAT3 activation (STAT3; MFE296, 1 μM, 0 to 72 hours): no effect
- STAT3 activation (STAT3; [22]): no effect
- cell cycle effect (MFE296 cells [11]): induced cell cycle arrest
- IC50 [12]: 61.7 nM
- p38 activation (p38; AN3CA, 1 μM, 0 to 72 hours): no effect
- p38 activation (p38; [20]): no effect
- p38 activation (p38; HEC1A, 1 μM, 0 to 72 hours): no effect
- p38 activation (p38; [21]): no effect
- p38 activation (p38; MFE296, 1 μM, 0 to 72 hours): no effect
- p38 activation (p38; [22]): no effect
- effect on xenograft tumors [13]: minimal effect
